The source of these data is patent US9216968B2, “Heterocyclic derivative and pharmaceutical drug” (NIPPON SHINYAKU CO., LTD., priority 2011, dated 2015).

One experiment concerns the target human mPGES-1 (Homo sapiens (Human), UniProt O14684). Nature of the experiment: mPGES-1 inhibiting activity (microsome fractions, PGE2 by HTRF). Format: biochemical. As to conditions: microsomes from CHO-K1 cells transfected with human mPGES-1; PGH2 1 μM, 4° C., 60 seconds; read-out: mPGES-1 Inhibition IC50. The essentials:
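PGE2 formation read by HTRF after 60 s at 4 °C with 1 μM PGH2 substrate, following 20 min compound preincubation (1% DMSO) with human mPGES-1 microsomes from transfected CHO-K1 cells. Buffer: potassium phosphate, reduced glutathione, pH 7.4; IC50 from activity relative to enzyme-free blank.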

The next experiment has as its system A549 cells. Nature of the experiment: Inhibition of PGE2 production in A549 cell (IL-1β stimulated). Type of experiment: cell-based, human. As to conditions: Homo sapiens, A549, 24 h, IL-1β 5 ng/well, PGE2 in culture medium. The gist of the method: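 After IL-1β (5 ng/well) stimulation for 24 h at 37 °C, following a 60-min compound pretreatment in RPMI with 3% FBS, medium PGE2 (HTRF) and PGF2α (EIA) from human A549 cells were quantified. 100% activity set as IL-1β-induced minus basal production; IC50 calculated.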

Structures are written as SMILES. Structures can show the parent of a compound that is named as a salt.

Sequence of human mPGES-1 (O14684 whole entry): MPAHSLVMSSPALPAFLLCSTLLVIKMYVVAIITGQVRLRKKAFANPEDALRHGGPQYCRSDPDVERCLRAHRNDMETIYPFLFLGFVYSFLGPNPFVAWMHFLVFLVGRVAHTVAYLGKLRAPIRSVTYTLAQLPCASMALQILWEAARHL

Take `COCCCNc1nc2c(C(=O)Nc3cccc(Cl)c3C)cc(NC(=O)c3ccccc3C(F)(F)F)cc2[nH]1` [Example 174, N-(3-Chloro-2-methylphenyl)-2-[(3-methoxypropyl)amino]-6-({[2-(trifluoromethyl)phenyl]carbonyl}amino)-1H-benzimidazole-4-carboxamide hydrochloride]: the IC50 (in general, the concentration at which inhibition is half-maximal) was 2 nM on human mPGES-1 and 117 nM with A549 cells.
On the same counts, the results for `COCc1nc2c(C(=O)Nc3cccc(Cl)c3C)cc(NC(=O)c3cc(C(F)(F)F)ccc3C(F)(F)F)cc2[nH]1` [Example 110, 6-({[2,5-Bis(trifluoromethyl)phenyl]carbonyl}amino)-N-(3-chloro-2-methylphenyl)-2-(methoxymethyl)-1H-benzimidazole-4-carboxamide hydrochloride] are 2.6 nM and 35.5 nM.
Regarding `Cc1c(Cl)cccc1NC(=O)c1cc(NC(=O)c2c(F)cccc2Cl)cc2[nH]c(N[C@H](CO)C(C)C)nc12` [Example 201, 6-{[(2-Chloro-6-fluorophenyl)-carbonyl]amino}-N-(3-chloro-2-methylphenyl)-2-{[(25)-1-hydroxy-3-methylbutan-2-yl]amino}-1H-benzimidazole-4-carboxamide hydrochloride], the values for the IC50 on human mPGES-1 and with A549 cells were 0.5 nM and 253 nM, respectively.
For `COCCc1nc2c(C(=O)Nc3ccc(C)c(Cl)c3)cc(NC(=O)c3cc(Cl)ccc3Cl)cc2[nH]1` [Example 213, N-(3-Chloro-4-methylphenyl)-6-{[(2,5-dichlorophenyl)carbonyl]amino}-2-(2-methoxyethyl)-1H-benzimidazole-4-carboxamide hydrochloride], in that order: 0.9 nM and 142 nM.
For `Cc1ccc(NC(=O)c2cc(NC(=O)c3ccccc3C(F)(F)F)cc3[nH]c(C(C)(C)C)nc23)cc1Cl` [Example 86, 2-tert-Butyl-N-(3-chloro-4-methylphenyl)-6-({[2-(trifluoromethyl)phenyl]carbonyl}amino)-1H-benzimidazole-4-carboxamide hydrochloride], in that order: 1 nM and 5.1 nM.
On the same counts, the results for `Cc1c(Cl)cccc1NC(=O)c1cc(NC(=O)c2ccccc2C(F)(F)F)cc2[nH]c(N3CCCC3)nc12` [Example 164, N-(3-Chloro-2-methylphenyl)-2-(pyrrolidin-1-yl)-6-({[2-(trifluoromethyl)phenyl]carbonyl}amino)-1H-benzimidazole-4-carb oxamide hydrochloride] are 0.3 nM and 13.3 nM.
Consider `Cc1c(Cl)cccc1NC(=O)c1cc(NC(=O)c2ccccc2C(F)(F)F)cc2[nH]c([C@@H]3CCC(=O)N3)nc12` [Example 130, N-(3-Chloro-2-methylphenyl)-2-[(2S)-5-oxopyrrolidin-2-yl]-6-({[2-(trifluoromethyl)phenyl]carbonyl}amino)-1H-benzimidazole-4-carboxamide hydrochloride], for which the IC50 on human mPGES-1 was 3.9 nM; with A549 cells, above 10000 nM.
On the same counts, the results for `COCc1nc2c(C(=O)Nc3cccc(Cl)c3C)cc(NC(=O)c3ccc(F)cc3Cl)cc2[nH]1` [Example 93, 6-{[(2-Chloro-4-fluorophenyl)carbonyl]amino}-N-(3-chloro-2-methylphenyl)-2-methoxymethyl-1H-benzimidazole-4-carboxamide hydrochloride] are 4.2 nM and 154 nM.
On the same counts, the results for `Cc1nc2c(C(=O)Nc3cccc(Cl)c3C)cc(NC(=O)c3ccccc3C(F)(F)F)cc2[nH]1` [Example 14, N-(3-Chloro-2-methylphenyl)-2-methyl-6-({[2-(trifluoromethyl)phenyl]carbonyl}amino)-1H-benzimidazole-4-carboxamide hydrochloride] are 3.8 nM and 15.2 nM.
For `Cc1c(Cl)cccc1NC(=O)c1cc(NC(=O)c2ccc(Cl)cc2Cl)cc2[nH]c(N(C)C)nc12` [Example 184, N-(3-Chloro-2-methylphenyl)-6-{[(2,4-dichlorophenyl)carbonyl]amino}-2-(dimethylamino)-1H-benzimidazole-4-carboxamide hydrochloride], in that order: 1 nM and 138 nM.
On to `CCOc1nc2c(C(=O)NCc3ccccc3C(F)(F)F)cc(NC(=O)c3ccccc3C(F)(F)F)cc2[nH]1` [Example 56, 2-Ethoxy-N-[2-(trifluoromethyl)benzyl]-6-({[2-(trifluoromethyl)phenyl]carbonyl}amino)-1H-benzimidazole-4-carboxamide], for which the IC50 at human mPGES-1 was 7.5 nM; with A549 cells it was 85 nM.
On the same counts, the results for `Cc1c(Cl)cccc1NC(=O)c1cc(NC(=O)c2c(Cl)cccc2Br)cc2[nH]c(N(C)C)nc12` [Example 187, 6-{[(2-Bromo-6-chlorophenyl)carbonyl]amino}-N-(3-chloro-2-methylphenyl)-2-(dimethylamino)-1H-benzimidazole-4-carboxamide hydrochloride] are 3.6 nM and 12.7 nM.
For `COCc1nc2c(C(=O)Nc3cccc(Cl)c3C)cc(NC(=O)c3c(F)cccc3Cl)cc2[nH]1` [Example 92, 6-{[(2-Chloro-6-fluorophenyl)carbonyl]amino}-N-(3-chloro-2-methylphenyl)-2-(methoxymethyl)-1H-benzimidazole-4-carboxamide hydrochloride], in that order: 6.7 nM and 32.2 nM.
On the same counts, the results for `Cc1c(Cl)cccc1NC(=O)c1cc(NC(=O)c2c(F)cccc2Cl)cc2[nH]c(NCC(C)(C)CO)nc12` [Example 200, 6-{[(2-Chloro-6-fluorophenyl)carbonyl]amino}-N-(3-chloro-2-methylphenyl)-2-[(3-hydroxy-2,2-dimethylpropyl)amino]-1H-benzimidazole-4-carboxamide hydrochloride] are 4.6 nM and 108 nM.
Turning to `COCc1nc2c(C(=O)Nc3cccc(Cl)c3C)cc(NC(=O)c3cc(C)ccc3Cl)cc2[nH]1` [Example 108, N-(3-Chloro-2-methylphenyl)-6-{[(2-chloro-5-methylphenyl)carbonyl]amino}-2-(methoxymethyl)-1H-benzimidazole-4-carboxamide hydrochloride], the IC50 on human mPGES-1 worked out at 11.5 nM; in the experiment with A549 cells, 87.9 nM.
With `Cc1c(Cl)cccc1NC(=O)c1cc(NC(=O)c2ccccc2C(F)(F)F)cc2[nH]c(CC(C)(C)C)nc12` [Example 82, N-(3-Chloro-2-methylphenyl)-2-(2,2-dimethylpropyl)-6-({[2-(trifluoromethyl)phenyl]carbonyl}amino)-1H-benzimidazole-4-carboxamide hydrochloride], the IC50 on human mPGES-1 was 0.4 nM; in the experiment on A549 cells, 6.3 nM.
Take `Cc1c(Cl)cccc1NC(=O)c1cc(NC(=O)c2ccccc2C(F)(F)F)cc2[nH]c(CN(C)C)nc12` [Example 58, N-(3-Chloro-2-methylphenyl)-2-[(dimethylamino)methyl]-6-({[2-(trifluoromethyl)phenyl]carbonyl}amino)-1H-benzimidazole-4-carboxamide hydrochloride]: the figures for the IC50 at human mPGES-1 and with A549 cells were 5.4 nM and 157 nM, respectively.
On the same counts, the results for `CCn1cnc2c(C(=O)Nc3cccc(Cl)c3C)cc(NC(=O)c3ccccc3C(F)(F)F)cc21` [Example 49, N-(3-Chloro-2-methylphenyl)-1-ethyl-6-({[2-(trifluoromethyl)phenyl]carbonyl}amino)-1H-benzimidazole-4-carboxamide] are 100 nM and 375 nM.
On the same counts, the results for `COCc1nc2c(C(=O)Nc3ccc(C)cc3Cl)cc(NC(=O)c3ccccc3C(F)(F)F)cc2[nH]1` [Example 30, N-(2-Chloro-4-methylphenyl)-2-(methoxymethyl)-6-({[2-(trifluoromethyl)phenyl]carbonyl}amino)-1H-benzimidazole-4-carboxamide hydrochloride] are 1.8 nM and 210 nM.
On the same counts, the results for `COCc1nc2c(C(=O)Nc3ccc(C(F)(F)F)cc3)cc(NC(=O)c3ccccc3C(F)(F)F)cc2[nH]1` [Example 28, 2-(Methoxymethyl)-N-[4-(trifluoromethyl)phenyl]-6-({[2-(trifluoromethyl)phenyl]carbonyl}amino)-1H-benzimidazole-4-carboxamide hydrochloride] are 3.3 nM and 114 nM.
For `CC(=O)N1CC(c2nc3c(C(=O)Nc4cccc(Cl)c4C)cc(NC(=O)c4ccccc4C(F)(F)F)cc3[nH]2)C1` [Example 68, 2-(1-Acetylazetidin-3-yl)-N-(3-chloro-2-methylphenyl)-6-({[2-(trifluoromethyl)phenyl]carbonyl}amino)-1H-benzimidazole-4-carboxamide hydrochloride], the figures for the IC50 at human mPGES-1 and with A549 cells were 63.4 nM and above 10000 nM, respectively.
For `Cc1c(Cl)cccc1NC(=O)c1cc(NC(=O)c2ccccc2C(F)(F)F)cc2[nH]c(NCCN(C)C)nc12` [Example 147, N-(3-Chloro-2-methylphenyl)-2-{[2-(dimethylamino)ethyl]amino}-6-({[2-(trifluoromethyl)phenyl]carbonyl}amino)-1H-benzimidazole-4-carboxamide hydrochloride], in that order: 15.8 nM and 186 nM.
On the same counts, the results for `COCc1nc2c(C(=O)Nc3cccc(Cl)c3C)cc(NC(=O)c3ccc(C)cc3Cl)cc2[nH]1` [Example 105, N-(3-Chloro-2-methylphenyl)-6-{[(2-chloro-4-methylphenyl)carbonyl]amino}-2-(methoxymethyl)-1H-benzimidazole-4-carboxamide hydrochloride] are 8.9 nM and 325 nM.
